Consider 2 compounds from patent publication US20140066444A1, “Method of Treating Cancer” (Exelixis, Inc., priority 2010, published 2014).

Each structure is given as a SMILES string.

The nature of one data set: oral bioavailability. The settings on record: in vivo.
Data set [1] deals with endothelial cells and tumor cells. The experiment in a line: induction of apoptosis.
The test system of data set [2] is metastatic castration-resistant prostate cancer (CRPC) with bone metastases. In words: case studies: metastatic CRPC patients treated with Compound 1. The class given is in vivo, human. The settings on record: three metastatic CRPC patients. The source says:
Bone metastases are present in 90% of patients with castration-resistant prostate cancer (CRPC), causing significant morbidity and mortality.

Another data set deals with xenograft tumor models. The experiment in a line: xenograft tumor models.
The test system of data set [3] is pancreatic neuroendocrine tumor model. The experiment in a line: murine pancreatic neuroendocrine tumor model.
For the next data set, the system named is MET and VEGFR signaling. The experiment in a line: suppression of MET and VEGFR signaling.
Data set [4] can be described thus: gravimetric vapor sorption (GVS) study. The settings on record: 25° C. and 90% humidity. The class given is physicochemical. On the procedure: A gravimetric vapor sorption (GVS) study was run using a standard procedure. Samples were run on a dynamic vapor sorption analyzer (Surface Measurement Systems) running DVSCFR software. Sample sizes were typically 10 mg. A moisture adsorption desorption isotherm was performed as outlined below. The standard isotherm experiment, performed at 25° C., is a two-cycle run, starting at 40% RH, increasing humidity to 90% RH, decreasing humidity to 0% RH, increasing humidity again to 90% RH, and finally decreasing humidity to 0% RH in 10% RH intervals.

Take `COc1cc2c(Oc3ccc(NC(=O)C4(C(=O)Nc5ccc(F)cc5)CC4)cc3F)ccnc2cc1OCCCN1CCOCC1` [Compound 1]: the oral bioavailability entry in “oral bioavailability” is reported as “orally bioavailable”. The “apoptosis of endothelial cells and tumor cells” value in data set [1] is on record as “rapidly induces apoptosis”. Further, in data set [2], the bone lesions entry is on record as “near complete resolution of bone lesions”, the bone pain entry is recorded as “marked reduction”, the measurable disease entry is reported as “reduction in measurable disease” and the “total serum alkaline phosphatase (tALP) levels” value is on record as “marked reduction”. The tumor regression entry in the data set with xenograft tumor models is reported as “causes tumor regression”. In data set [3], the overall survival result is given as “substantially improves”; the “tumor invasiveness and metastasis” value is on record as “significantly reduces”. Also, the “MET and VEGFR signaling” value in the data set with MET and VEGFR signaling is recorded as “suppresses”.
With `COc1cc2c(Oc3ccc(NC(=O)C4(C(=O)Nc5ccc(F)cc5)CC4)cc3F)ccnc2cc1OCCCN1CCOCC1.O` [crystalline Compound 1, N-[3-fluoro-4-({6-(methyloxy)-7-[(3-morpholin-4-ylpropyl)oxy]quinolin-4-yl}oxy)phenyl]-N′-(4-fluorophenyl)cyclopropane-1,1-dicarboxamide crystalline hydrate], in data set [4], the “weight gain (GVS)” value worked out at 2.5%.
